Test results: patent US6737383B1, “Herbicidal oxadiazolidines” (priority 1999, dated 2004)

Experiments:
blackgrass = experiment: Test B pre/postemergence blackgrass; assay type: in vivo, Alopecurus myosuroides
Outline: (§1)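 Herbicidal effect was estimated by eye on a ten-point control scale after plants spent twelve to sixteen days in a greenhouse following soil or foliar treatment. Foliar sprays targeted plants at one to four leaves; all doses were formulated in a non-phytotoxic solvent with surfactant.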

surinam grass = experiment: Test B pre/postemergence surinam grass; assay type: in vivo, Brachiaria decumbens
Outline: as §1

cocklebur = experiment: Test B pre/postemergence cocklebur; assay type: in vivo, Xanthium strumarium
Outline: as §1

corn = experiment: Test B pre/postemergence corn; assay type: in vivo, Zea mays
Outline: as §1

crabgrass = experiment: Test B pre/postemergence crabgrass; assay type: in vivo, Digitaria sanguinalis
Outline: as §1

giant foxtail = experiment: Test B pre/postemergence giant foxtail; assay type: in vivo, Setaria faberii
Outline: as §1

morningglory = experiment: Test B pre/postemergence morningglory; assay type: in vivo, Ipomoea hederacea
Outline: as §1

pigweed = experiment: Test B pre/postemergence pigweed; assay type: in vivo, Amaranthus retroflexus
Outline: as §1

rape = experiment: Test B pre/postemergence rape; assay type: in vivo, Brassica napus
Outline: as §1

soybean = experiment: Test B pre/postemergence soybean; assay type: in vivo, Glycine max
Outline: as §1

sugar beet = experiment: Test B pre/postemergence sugar beet; assay type: in vivo, Beta vulgaris; details: for Plant response rating, Sugarbeets: Rate 250 g/ha
Outline: as §1

velvetleaf = experiment: Test B pre/postemergence velvetleaf; assay type: in vivo, Abutilon theophrasti; details: for Plant response rating, Velvetleaf: Rate 250 g/ha
Outline: as §1

wild oat = experiment: Test B pre/postemergence wild oat; assay type: in vivo, Avena fatua; details: for Plant response rating, Wild oats: Rate 250 g/ha
Outline: as §1

purple nutsedge = experiment: Test B pre/postemergence purple nutsedge; assay type: in vivo, Cyperus rotundus
Outline: as §1

smallflower flatsedge = experiment: Test B flood test smallflower flatsedge; assay type: in vivo, Cyperus difformis
Outline: (§2)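 Plants were grown to the 2-leaf stage before treatment with test chemical, then held in a greenhouse for twelve to sixteen days. Injury was visually rated against untreated controls on a 0–10 scale, where 0 is no effect and 10 is complete control.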

bamyardgrass = experiment: Test B flood test barnyardgrass; assay type: in vivo, Echinochloa crus-galli
Outline: as §2

[1] = Postemergence, Rate 62 g/ha, scale 0 to 10, 0 is no effect, 10 is complete control
[2] = Postemergence, Rate 125 g/ha, scale of 0 to 10 where 0 is no effect and 10 is complete control
[3] = Postemergence, Rate 250 g/ha, scale 0 to 10, 0 no effect, 10 complete control
[4] = Preemergence, Rate 62 g/ha, scale 0 to 10 (0 no effect, 10 complete control)
[5] = Preemergence, Rate 125 g/ha, scale 0 to 10 (0 no effect, 10 complete control)
[6] = Preemergence, Rate 250 g/ha, scale of 0 to 10 where 0 is no effect and 10 is complete control
[7] = Preemergence, Rate 500 g/ha, scale 0 (no effect) to 10 (complete control)
[8] = Rate 500 g/ha, Postemergence, scale 0 to 10, 0 no effect, 10 complete control
[9] = Preemergence, Rate 125 g/ha, 0 is no effect, 10 is complete control
[10] = Preemergence, scale of 0 to 10 where 0 is no effect and 10 is complete control
[11] = Postemergence, scale 0 to 10, 0 is no effect, 10 is complete control
[12] = Rate 500 g/ha, listed under Postemergence (flood test species), scale 0 to 10, 0 no effect, 10 complete control

CC(C)N(C(=O)n1oc(=O)n(-c2cnn(C)c2Cl)c1=O)c1ccc(F)cc1 [Compound 97]
10: Redroot pigweed plant response rating (pigweed; [7])
5: Blackgrass plant response rating (blackgrass; [8]) | Redroot pigweed plant response rating (pigweed; [8]) | Plant response rating, Rape (rape; [6]) | Plant response rating, Sugarbeets (sugar beet; [10]) | Wild oats plant response rating (wild oat; [7])
4: B. signalgrass plant response rating (surinam grass; [7]) | Crabgrass plant response rating (crabgrass; [3]) | Crabgrass plant response rating (crabgrass; [7]) | Plant response rating, Giant foxtail (giant foxtail; [6]) | Giant foxtail plant response rating (giant foxtail; [8]) | Plant response rating, Redroot pigweed (pigweed; [6])
8: Giant foxtail plant response rating (giant foxtail; [7])
1: Plant response rating, Blackgrass (blackgrass; [5]) | Plant response rating, Blackgrass (blackgrass; [6]) | Cocklebur plant response rating (cocklebur; [3]) | Cocklebur plant response rating (cocklebur; [8]) | Plant response rating, Crabgrass (crabgrass; [6]) | Morningglory plant response rating (morningglory; [1]) | Morningglory plant response rating (morningglory; [2]) | Plant response rating, Soybean (soybean; Rate 250 g/ha, Postemergence, scale 0 to 10, 0 is no effect, 10 is complete control)
9: Sugarbeets plant response rating (sugar beet; [7])
6: Rape plant response rating (rape; [7])
0: Blackgrass plant response rating (blackgrass; [1]) | Blackgrass plant response rating (blackgrass; [2]) | Blackgrass plant response rating (blackgrass; [4]) | B. signalgrass plant response rating (surinam grass; [1]) | B. signalgrass plant response rating (surinam grass; [3]) | B. signalgrass plant response rating (surinam grass; [4]) | B. signalgrass plant response rating (surinam grass; Rate 125 g/ha, Postemergence, scale 0 to 10, 0 no effect, 10 complete control) | B. signalgrass plant response rating (surinam grass; Rate 500 g/ha, Postemergence, scale of 0 to 10 where 0 is no effect and 10 is complete control) | Cocklebur plant response rating (cocklebur; [1]) | Cocklebur plant response rating (cocklebur; [2]) | Cocklebur plant response rating (cocklebur; [4]) | Plant response rating, Cocklebur (cocklebur; [5]) | Plant response rating, Cocklebur (cocklebur; [6]) | Cocklebur plant response rating (cocklebur; [7]) | Corn plant response rating (corn; [1]) | Corn plant response rating (corn; [2]) | Corn plant response rating (corn; [3]) | Corn plant response rating (corn; [4]) | Plant response rating, Corn (corn; [5]) | Plant response rating, Corn (corn; [6]) | Corn plant response rating (corn; [7]) | Corn plant response rating (corn; [8]) | Crabgrass plant response rating (crabgrass; [1]) | Crabgrass plant response rating (crabgrass; [4]) | Plant response rating, Crabgrass (crabgrass; [5]) | Giant foxtail plant response rating (giant foxtail; [1]) | Giant foxtail plant response rating (giant foxtail; [2]) | Giant foxtail plant response rating (giant foxtail; [4]) | Morningglory plant response rating (morningglory; [4]) | Plant response rating, Morningglory (morningglory; [5]) | Plant response rating, Morningglory (morningglory; [6]) | Morningglory plant response rating (morningglory; [7]) | Redroot pigweed plant response rating (pigweed; [1]) | Redroot pigweed plant response rating (pigweed; [2]) | Redroot pigweed plant response rating (pigweed; [4]) | Rape plant response rating (rape; [1]) | Rape plant response rating (rape; [2]) | Rape plant response rating (rape; [3]) | Rape plant response rating (rape; [4]) | Plant response rating, Rape (rape; [5]) | Soybean plant response rating (soybean; [1]) | Soybean plant response rating (soybean; [2]) | Soybean plant response rating (soybean; [4]) | Plant response rating, Soybean (soybean; [5]) | Plant response rating, Soybean (soybean; [6]) | Sugarbeets plant response rating (sugar beet; [1]) | Sugarbeets plant response rating (sugar beet; [2]) | Sugarbeets plant response rating (sugar beet; [4]) | Plant response rating, Sugarbeets (sugar beet; [11]) | Sugarbeets plant response rating (sugar beet; [8]) | Velvetleaf plant response rating (velvetleaf; [1]) | Velvetleaf plant response rating (velvetleaf; [2]) | Velvetleaf plant response rating (velvetleaf; [4]) | Velvetleaf plant response rating (0 to 10 scale) (velvetleaf; [9]) | Plant response rating, Velvetleaf (velvetleaf; [10]) | Velvetleaf plant response rating (velvetleaf; [7]) | Wild oats plant response rating (wild oat; [1]) | Wild oats plant response rating (wild oat; [2]) | Wild oats plant response rating (wild oat; [4]) | Plant response rating, Wild oats (wild oat; [11]) | Wild oats plant response rating (wild oat; [8]) | Nutsedge plant response rating (purple nutsedge; [1]) | Nutsedge plant response rating (purple nutsedge; [2]) | Nutsedge plant response rating (purple nutsedge; [3]) | Nutsedge plant response rating (purple nutsedge; [4]) | Plant response rating, Nutsedge (purple nutsedge; [5]) | Plant response rating, Nutsedge (purple nutsedge; [6]) | Nutsedge plant response rating (purple nutsedge; [7]) | Nutsedge plant response rating (purple nutsedge; [8]) | S. Flatsedge plant response rating (smallflower flatsedge; Postemergence (flood test species), Rate 125 g/ha, scale of 0 to 10 where 0 is no effect and 10 is complete control) | S. Flatsedge plant response rating (smallflower flatsedge; [1]) | Plant response rating, S. Flatsedge (smallflower flatsedge; Rate 250 g/ha, Postemergence (flood test), scale 0 to 10, 0 is no effect, 10 is complete control) | Barnyardgrass plant response rating (bamyardgrass; [1]) | Barnyardgrass plant response rating (bamyardgrass; Rate 125 g/ha, Postemergence section (flood test species), scale 0 to 10, 0 no effect, 10 complete control) | Barnyardgrass plant response rating (bamyardgrass; [12]) | Barnyardgrass plant response rating (bamyardgrass; flood test, listed under Postemergence, Rate 250 g/ha, scale 0 to 10, 0 no effect, 10 complete control)
3: Blackgrass plant response rating (blackgrass; [3]) | Blackgrass plant response rating (blackgrass; [7]) | Plant response rating, B. signalgrass (surinam grass; [6]) | Giant foxtail plant response rating (giant foxtail; [3]) | Plant response rating, Giant foxtail (giant foxtail; [5]) | Morningglory plant response rating (morningglory; [3]) | Morningglory plant response rating (morningglory; [8]) | Rape plant response rating (rape; [8]) | Sugarbeets plant response rating (0 to 10 scale) (sugar beet; [9]) | Velvetleaf plant response rating (velvetleaf; [8])
2: Plant response rating, B. signalgrass (surinam grass; [5]) | Crabgrass plant response rating (crabgrass; [2]) | Soybean plant response rating (soybean; [7]) | Soybean plant response rating (soybean; [8]) | Plant response rating, Velvetleaf (velvetleaf; [11]) | Wild oats plant response rating (0 to 10 scale) (wild oat; [9]) | Plant response rating, Wild oats (wild oat; [10]) | S. Flatsedge plant response rating (smallflower flatsedge; [12])
